16 compounds from ChEMBL document CHEMBL4715722, “Discovery and preliminary structure-activity relationship studies on tecomaquinone I and tectol as novel farnesyltransferase and plasmodial inhibitors” (Bioorg Med Chem, 2016) can be followed below.

The IC50 is the concentration that gives 50% inhibition.

SMILES strings stand for the structures. Some results are limits rather than exact numbers.

Tested on in the first data set: not listed separately
The data set is described as follows: Cytotoxicity against human tumor cell line.
Details: not given; call rule not given here
The format is cell-based.
Take `CC(C)=CCC/C(C)=C/CCc1ccc2c(c1)C(=O)c1ccccc1C2=O`: the Activity result is reported as “Non-Toxic”.

Take `CC1(C)C=Cc2c(-c3c4c(c5ccccc5c3O)OC(C)(C)C=C4)c(O)c3ccccc3c2O1` [tectol]: the Activity result was “Non-Toxic”.

Turning to `CC(C)=CCC/C(C)=C/CC/C(C)=C/C1Oc2c(c3c(c4ccccc24)OC(C)(CC/C=C(\C)CCC=C(C)C)C=C3)C2=C1C(=O)c1ccccc1C2=O` (stereo unspecified), the Activity entry is reported as “Non-Toxic”.

`CC(C)=CCCC1(C)C=Cc2c3c(c4ccccc4c2O1)OC(C)(CCC=C(C)C)C=C3` (stereo unspecified): the Activity entry is listed as “Non-Toxic”.

For `CC(C)=CCC/C(C)=C/CCC1(C)C=Cc2c3c(c4ccccc4c2O1)OC(C)(CC/C=C(\C)CCC=C(C)C)C=C3` (stereo unspecified), the Activity entry is “Non-Toxic”.

As to `CC(C)=CCC/C(C)=C/C1Oc2c(c3c(c4ccccc24)OC(C)(CCC=C(C)C)C=C3)C2=C1C(=O)c1ccccc1C2=O` (stereo unspecified), the Activity result is on record as “Non-Toxic”.

Turning to `CC(C)=CCCC1(C)C=Cc2c(-c3c4c(c5ccccc5c3O)OC(C)(CCC=C(C)C)C=C4)c(O)c3ccccc3c2O1` (stereo unspecified), the Activity result was “Non-Toxic”.

As to `CC(C)=CCC/C(C)=C/CCC1(C)C=Cc2c(-c3c4c(c5ccccc5c3O)OC(C)(CC/C=C(\C)CCC=C(C)C)C=C4)c(O)c3ccccc3c2O1` (stereo unspecified), the Activity result is recorded as “Non-Toxic”.

Take `CC(C)=CCCc1ccc2c(c1)C(=O)c1ccccc1C2=O`: the Activity entry is listed as “Non-Toxic”.

As for `CC(C)=CC1Oc2c(c3c(c4ccccc24)OC(C)(C)C=C3)C2=C1C(=O)c1ccccc1C2=O` (stereo unspecified) [TECOMAQUINONE], the Activity entry is recorded as “Non-Toxic”.

Molecular target in a further data set: not listed separately
Nature of the data set: Inhibition of recombinant human FTase.
Details: not given
Regarding `O=C(O)C/C(C(=O)O)=C(/CCCCCCCCCCCCCCCCOS(=O)(=O)O)C(=O)O`, the IC50 came to 14 nM.

In the case of `CCC(CC(C)C(=O)O)C(=O)CC/C1=C/C(C)C/C(C)=C/C(C)C(O)C(C)CCC(CCCC/C=C/C(C)CCC(C)OC(=O)CC(CC(=O)O)C(=O)O)OC(=O)CC(C(=O)O)CC(=O)OC1` (stereo unspecified) [ACTINOPLANIC ACID A], the IC50 is 230 nM.

Regarding `CCC(CC(C)C(=O)O)C(=O)CC/C(C)=C/C(C)C/C(C)=C/C(C)C(O)C(C)CCC(CCCC/C=C/C(C)CCC(C)OC(=O)CC(CC(=O)O)C(=O)O)OC(=O)CC(CC(=O)O)C(=O)O` (stereo unspecified), the IC50 is 50 nM.

Molecular target in a further data set: not listed separately
The data set is described as follows: Inhibition of bovine brain FTase using 3H-farnesyl diphosphate as substrate incubated for 30 mins by beta-plate counting method. Also noted: species or system Bos taurus.
Details: not given
`CCCCCCCCCC(=O)O[C@@H]1[C@@H](O)C2(CCCC(OC(C)=O)C(C)C/C=C/c3ccccc3)OC(C(=O)O)C(O)(C(=O)O)C1(C(=O)O)O2` (stereo partly specified) yielded an IC50 of 100 nM.

Compound `CC(=O)OC(CCCC12OC(C(=O)O)C(O)(C(=O)O)C(C(=O)O)(O1)[C@H](OC(=O)CC/C=C/C(C)CCCc1ccccc1)[C@H]2O)C(C)Cc1ccccc1` (stereo partly specified) returned an IC50 of 150 nM.

For the compound `CCCCCCCC(=O)O[C@@H]1[C@@H](O)C2(CCCC(OC(C)=O)C(C)C/C=C/c3ccccc3)OC(C(=O)O)C(O)(C(=O)O)C1(C(=O)O)O2` (stereo partly specified), inhibition was half-maximal at 100 nM (IC50).

Tested on in a further data set: not listed separately
The data set is described as follows: Inhibition of Trypanosoma brucei FTase.
Details: not given
As to `CC(C)=CCC/C(C)=C/CC/C(C)=C/C1Oc2c(c3c(c4ccccc24)OC(C)(CC/C=C(\C)CCC=C(C)C)C=C3)C2=C1C(=O)c1ccccc1C2=O` (stereo unspecified), the IC50 entry is “Not Active”.

Staying with this data set, now noted: read-out: IC50.
`CC(C)=CCC/C(C)=C/CCc1ccc2c(c1)C(=O)c1ccccc1C2=O`: the IC50 is 1700 nM.

Turning to `CC1(C)C=Cc2c(-c3c4c(c5ccccc5c3O)OC(C)(C)C=C4)c(O)c3ccccc3c2O1` [tectol], the IC50 was 1730 nM.

Turning to `CC(C)=CCCC1(C)C=Cc2c3c(c4ccccc4c2O1)OC(C)(CCC=C(C)C)C=C3` (stereo unspecified), the IC50 came to 7900 nM.

Turning to `CC(C)=CCC/C(C)=C/CCC1(C)C=Cc2c3c(c4ccccc4c2O1)OC(C)(CC/C=C(\C)CCC=C(C)C)C=C3` (stereo unspecified), the 50% inhibitory concentration (IC50) amounted to 2600 nM.

Consider `CC(C)=CCC/C(C)=C/C1Oc2c(c3c(c4ccccc24)OC(C)(CCC=C(C)C)C=C3)C2=C1C(=O)c1ccccc1C2=O` (stereo unspecified), for which the IC50 was 2700 nM.

Regarding `CC(C)=CCCC1(C)C=Cc2c(-c3c4c(c5ccccc5c3O)OC(C)(CCC=C(C)C)C=C4)c(O)c3ccccc3c2O1` (stereo unspecified), the IC50 was determined as 6100 nM.

Take `CC(C)=CCC/C(C)=C/CCC1(C)C=Cc2c(-c3c4c(c5ccccc5c3O)OC(C)(CC/C=C(\C)CCC=C(C)C)C=C4)c(O)c3ccccc3c2O1` (stereo unspecified): the IC50 came to 8700 nM.

Regarding `CC(C)=CCCc1ccc2c(c1)C(=O)c1ccccc1C2=O`, the IC50 was 1400 nM.

As to `CC(C)=CC1Oc2c(c3c(c4ccccc24)OC(C)(C)C=C3)C2=C1C(=O)c1ccccc1C2=O` (stereo unspecified) [TECOMAQUINONE], the IC50 was determined as 112 nM.

Molecular target in a further data set: not listed separately
Nature of the data set: Inhibition of partially purified human FTase using dan-syl-GCVLS peptide as substrate measured for 15 mins by fluorescence based assay.
Details: not given
The compound `CC(C)=CCC/C(C)=C/CCc1ccc2c(c1)C(=O)c1ccccc1C2=O` came in with an IC50 of 1400 nM.

As for `CC1(C)C=Cc2c(-c3c4c(c5ccccc5c3O)OC(C)(C)C=C4)c(O)c3ccccc3c2O1` [tectol], the IC50 was 2090 nM.

Consider `CC(C)=CCC/C(C)=C/CC/C(C)=C/C1Oc2c(c3c(c4ccccc24)OC(C)(CC/C=C(\C)CCC=C(C)C)C=C3)C2=C1C(=O)c1ccccc1C2=O` (stereo unspecified), for which the IC50 was 9980 nM.

`CC(C)=CCCC1(C)C=Cc2c3c(c4ccccc4c2O1)OC(C)(CCC=C(C)C)C=C3` (stereo unspecified) displayed an IC50 of 4400 nM.

Consider `CC(C)=CCC/C(C)=C/CCC1(C)C=Cc2c3c(c4ccccc4c2O1)OC(C)(CC/C=C(\C)CCC=C(C)C)C=C3` (stereo unspecified), for which the IC50 was found to be 1700 nM.

In turn, `CC(C)=CCC/C(C)=C/C1Oc2c(c3c(c4ccccc24)OC(C)(CCC=C(C)C)C=C3)C2=C1C(=O)c1ccccc1C2=O` (stereo unspecified) had an IC50 of 1100 nM.

`CC(C)=CCCC1(C)C=Cc2c(-c3c4c(c5ccccc5c3O)OC(C)(CCC=C(C)C)C=C4)c(O)c3ccccc3c2O1` (stereo unspecified) registered an IC50 of 4400 nM.

In the case of `CC(C)=CCC/C(C)=C/CCC1(C)C=Cc2c(-c3c4c(c5ccccc5c3O)OC(C)(CC/C=C(\C)CCC=C(C)C)C=C4)c(O)c3ccccc3c2O1` (stereo unspecified), the midpoint of inhibition, the IC50, lay at 1800 nM.

Consider `CC(C)=CCCc1ccc2c(c1)C(=O)c1ccccc1C2=O`, for which the IC50 was 1500 nM.

The compound `CC(C)=CC1Oc2c(c3c(c4ccccc24)OC(C)(C)C=C3)C2=C1C(=O)c1ccccc1C2=O` (stereo unspecified) [TECOMAQUINONE] returned an IC50 of 65 nM.

A further data set concerns Plasmodium falciparum. The data set is described as follows: Antiplasmodial activity against chloroquine-resistant Plasmodium falciparum FcB1 infected in erythrocyte incubated for 48 hrs by [3H]-hypoxanthine incorporation assay. The format is functional, organism-based.
Details: not given
For the compound `CC(C)=CCC/C(C)=C/CCc1ccc2c(c1)C(=O)c1ccccc1C2=O`, the IC50 is > 28000 nM.

Take `CC1(C)C=Cc2c(-c3c4c(c5ccccc5c3O)OC(C)(C)C=C4)c(O)c3ccccc3c2O1` [tectol]: the midpoint of inhibition, the IC50, lay at 3440 nM.

On to `CC(C)=CCC/C(C)=C/CC/C(C)=C/C1Oc2c(c3c(c4ccccc24)OC(C)(CC/C=C(\C)CCC=C(C)C)C=C3)C2=C1C(=O)c1ccccc1C2=O` (stereo unspecified), for which the IC50 is > 14000 nM.

With `CC(C)=CCCC1(C)C=Cc2c3c(c4ccccc4c2O1)OC(C)(CCC=C(C)C)C=C3` (stereo unspecified), the IC50 was > 23000 nM.

For the compound `CC(C)=CCC/C(C)=C/CCC1(C)C=Cc2c3c(c4ccccc4c2O1)OC(C)(CC/C=C(\C)CCC=C(C)C)C=C3` (stereo unspecified), the IC50 was > 18000 nM.

As for `CC(C)=CCC/C(C)=C/C1Oc2c(c3c(c4ccccc24)OC(C)(CCC=C(C)C)C=C3)C2=C1C(=O)c1ccccc1C2=O` (stereo unspecified), the IC50 is > 17000 nM.

Compound `CC(C)=CCCC1(C)C=Cc2c(-c3c4c(c5ccccc5c3O)OC(C)(CCC=C(C)C)C=C4)c(O)c3ccccc3c2O1` (stereo unspecified) registered an IC50 of 10600 nM.

Turning to `CC(C)=CCC/C(C)=C/CCC1(C)C=Cc2c(-c3c4c(c5ccccc5c3O)OC(C)(CC/C=C(\C)CCC=C(C)C)C=C4)c(O)c3ccccc3c2O1` (stereo unspecified), the midpoint of inhibition, the IC50, lay at 7050 nM.

With `CC(C)=CCCc1ccc2c(c1)C(=O)c1ccccc1C2=O`, the IC50 was > 34000 nM.

Turning to `CC(C)=CC1Oc2c(c3c(c4ccccc24)OC(C)(C)C=C3)C2=C1C(=O)c1ccccc1C2=O` (stereo unspecified) [TECOMAQUINONE], the IC50 is > 22000 nM.
